The IC50 is the concentration that gives 50% inhibition.

Structures are written as SMILES. Values after ≈ are worked out from the molar mass of the structure shown. Active and inactive are the calls of the source. The calls are words filed in the database; no cut-off is given here.

Consider one compound from ChEMBL document CHEMBL4842345, “Design, synthesis and biological evaluation of tanshinone IIA-based analogues: Potent inhibitors of microtubule formation and angiogenesis” (Eur J Med Chem, 2021).

Data set [1] in a line: Kinetic solubility of the compound at pH 6.5 by nephelometry. It is filed as physicochemical. The settings on record: buffer, read-out: Kinetic_solubility.
The target of data set [2] is T1, Tubulin (Homo sapiens) (UniProt P68371+Q9H4B7+P0DPH7+P68366+Q13509+Q71U36+P04350+Q3ZCM7+P07437+P68363+Q9BQE3+Q6PEY2+Q13885+Q9BVA1+Q9BUF5). The data set can be described thus: Induction of microtubule distruption in human A549 cells assessed as spindle shaped microtubule structure at 2.5 to 10 uM measured after 48 hrs by immunofluorescence based laser scanning confocal microscopic analysis. In kind it is cell-based. The settings on record: dose 2.5-10 µM.

The test system of data set [3] is A549. The data set can be described thus: Induction of apoptosis in human A549 cells assessed as dead cells at 10 uM measured after 48 hrs by Annexin V-FITC/PI staining based flow cytometry analysis (Rvb= 0.67%). It is filed as functional. In general terms: In flow cytometry, cells or beads pass a laser one at a time.
For data set [4], the system named is A549. As to the kind of experiment: Induction of cell cycle arrest in human A549 cells assessed as accumulation of cells at S phase at 5 uM measured after 48 hrs by flow cytometry analysis (Rvb= 24.5%). In kind it is functional.
The subject of data set [5] is HUVEC. The data set can be described thus: Antivascular activity against HUVEC cells assessed as reduction in area and number of meshes measured after 6 hrs by imaging analysis. It is filed as functional, cell-based. The settings on record: Homo sapiens, dose 0.25-1 µM.
Data set [6] relates to HUVEC. The data set can be described thus: Antivascular activity against HUVEC cells assessed as inhibition of capillary-like tubule formation measured after 6 hrs by matrigel matrix based microscopic analysis. In kind it is functional, cell-based. The settings on record: Homo sapiens, dose 0.25-1 µM.
The test system of data set [7] is A549. The data set can be described thus: Antiproliferative activity against human A549 cells assessed as decrease in DNA synthesis at 2.5 to 10 uM by Edu incorporation assay. It is filed as functional, cell-based. The settings on record: dose 2.5-10 µM.
A further data set relates to MGC-803. The data set can be described thus: Antiproliferative activity against human MGC-803 cells assessed as reduction in cell viability measured after 72 hrs by MTT assay. In kind it is functional, cell-based. The settings on record: MGC-803, 72 h. (In general: Tetrazolium assays rely on reduction of a dye to a coloured formazan, in cell work by metabolically active cells.)

The species named for a further data set is Danio rerio. As to the kind of experiment: Antiangiogenic activity in transgenic Tg(flk:EGFP) zebra fish embryos assessed as reduction in length of intersegmental vessels measured at 30 hrs post fertilization by confocal fluorescence microscopy analysis. The settings on record: dose 1-4 µM. It is filed as functional, organism-based.
The subject of a further data set is MCF7. The data set can be described thus: Antiproliferative activity against human MCF7 cells assessed as reduction in cell viability measured after 72 hrs by MTT assay. It is filed as functional, cell-based. The settings on record: MCF7, 72 h.
Data set [8] has as its system A549. The data set can be described thus: Induction of apoptosis in human A549 cells assessed as live cells at 5 uM measured after 48 hrs by Annexin V-FITC/PI staining based flow cytometry analysis (Rvb= 97.1%). In kind it is functional.
The nature of data set [9]: Metabolic stability in human liver microsomes assessed as degradation half life. In kind it is ADME, Microsome. The settings on record: microsomes. (In general: Liver microsomes are a subcellular fraction often used to study metabolism.)
Data set [10] addresses T1, Tubulin (Homo sapiens). As to the kind of experiment: Inhibition of tubulin (unknown origin) polymerization assessed as decrease in fluorescence intensity at 12 uM by fluorescence based assay. It is filed as protein-complex assay.
The target in data set [11] is T1, Tubulin (Homo sapiens). The data set can be described thus: Induction of microtubule distruption in human A549 cells assessed as occurence of cell shrinkage at 2.5 to 10 uM measured after 48 hrs by immunofluorescence based laser scanning confocal microscopic analysis. The settings on record: dose 2.5-10 µM.
For data set [12], the system named is A549. The data set can be described thus: Induction of cell cycle arrest in human A549 cells assessed as accumulation of cells at G1 phase at 5 uM measured after 48 hrs by flow cytometry analysis (Rvb= 60.29%). It is filed as functional.
Data set [13] concerns A549. The data set can be described thus: Induction of cell cycle arrest in human A549 cells assessed as accumulation of cells at S phase at 10 uM measured after 48 hrs by flow cytometry analysis (Rvb= 24.5%). In kind it is functional.
Data set [14] deals with A549. As to the kind of experiment: Induction of apoptosis in human A549 cells assessed as late apoptotic cells at 10 uM measured after 48 hrs by Annexin V-FITC/PI staining based flow cytometry analysis (Rvb= 1.47%). In kind it is functional.

As to `COc1ccc2c(c1)-c1occ(C)c1C(=O)C2=O`, the solubility kinetic in data set [1] was 405 µg/mL (≈ 1670 µM). Moreover, the outcome on Tubulin (Homo sapiens) [2] was inactive. The Activity with A549 [3] is 0.5%; in the data set with A549 [4], 25.26%; with HUVEC [5] it was “Dose-Dependent Effect”; in the data set filed under Danio rerio, “Dose-Dependent Effect”; with A549 [8], 82.8%; in the data set on A549 [12], 54.43%. For the same compound, the results for the Activity with A549 [13] and with A549 [14] were 13.48% and 8.19%, respectively. The outcome in the data set with HUVEC [6], in the data set with A549 [7] and on Tubulin (Homo sapiens) [11] was Active. Moreover, the IC50 in the data set with MGC-803 stood at 840 nM; in the data set with MCF7 it was 3160 nM. Also, the t1/2 in [9] came out at 1.8 h. For the same compound, the inhibition entry on Tubulin (Homo sapiens) [10] is “Active”.
